Reference: US8524746B2, “Dosage regimen for COMT inhibitors” (Bial-Portela & Ca., S.A., priority 2007, dated 2013)
Where two headings read alike, the source gives them in different places.

How the values were obtained:
liver COMT = settings: rat, 3 mg/kg oral; for inhibition of liver COMT activity nine hours after administration: 9 h
Experimental: Livers from 60 day old male Wistar rats weighing 240-260 g (Harlan-Interfauna Ibérica, Barcelona, Spain), kept two per cage under controlled environmental conditions (12 h light/dark cycle and room temperature 24° C.) were used in all experiments. After decapitation, the organs were immediately removed and homogenised in 5 mM phosphate buffer of pH 7.8. COMT activity was evaluated by the ability to methylate adrenaline to metanephrine. […] The preincubation and incubation were carried out at 37° C. under conditions of light protection with continuous shaking and without oxygenation.
In experiments designed to evaluate the oral bioavailability of test substances, compounds were given by gastric tube to overnight fasted rats. Thereafter, at defined intervals, animals were killed by decapitation and livers removed and used to determine COMT activity as described above. At the end of the incubation period (5 min) the tubes were transferred to ice and the reaction was stopped by the addition of 200 μl of 2 M perchloric acid. The samples were then centrifuged (200×g, 4 min, 4° C.), and 500 μl aliquots of the supernatant, filtered on 0.22 μm pore size Spin-X filter tubes (Costar) were used for the assay of metanephrine. The assay of metanephrine was carried out by means of high pressure liquid chromatography with electrochemical detection. The lower limits for detection of metanephrine ranged from 350 to 500 fmol (0.5 to 1.0 μmol/mg protein/h).

[1] = 3 mg/kg oral
[2] = Brain levels of L-DOPA and its derivatives in rats treated with L-DOPA plus benserazide; type: in vivo, rat; settings: 3 mg/kg oral
[3] = L-DOPA plus benserazide, inhibitor given 24 h in advance
[4] = L-DOPA 12 mg/kg plus benserazide 3 mg/kg, all pre-treatment times (1, 7 and 24 h)

Row | SMILES | time to maximal inhibitory effect on liver COMT (liver COMT) [min] | inhibition of liver COMT activity nine hours after administration (liver COMT) | inhibition of liver COMT activity 24 hours after administration (liver COMT) | plasma 3-O-methyl-L-DOPA [1, 3] | plasma L-DOPA [1, 3] | brain L-DOPA ([2]; L-DOPA plus benserazide, 2 and 7 h after administration) | brain 3-O-methyl-L-DOPA [2, 3] | brain DOPAC [2, 3] | brain L-DOPA [2, 3] | brain dopamine [2, 3] | circulating (plasma) 3-O-methyl-L-DOPA [1, 4] | plasma L-DOPA [1, 4] | brain 3-O-methyl-L-DOPA [2, 4] | brain DOPAC [2, 4] | brain L-DOPA [2, 4] | brain dopamine [2, 4]
1 | Cc1ccc(C(=O)c2cc(O)c(O)c([N+](=O)[O-])c2)cc1 [tolcapone, 3,4-dihydroxy-4′-methyl-5-nitrobenzophenone] | ≤ 30 | minimal inhibitory effects | almost devoid of COMT inhibitory properties | not affected | not affected | Significant changes | not affected | not affected | not affected | not affected |  |  |  |  |  | 
2 | Cc1c(Cl)c(C)[n+]([O-])c(Cl)c1-c1noc(-c2cc(O)c(O)c([N+](=O)[O-])c2)n1 [Compound A, 5-[3-(2,5-dichloro-4,6-dimethyl-1-oxy-pyridin-3-yl)-[1,2,4]oxadiazol-5-yl]-3-nitrobenzene-1,2-diol] | ≤ 60 | 90 % of control levels | 60 % of controls levels |  |  |  |  |  |  |  | marked decrease | significant increases | marked decrease | significant increases | significant increases | significant increases
